Results: PubChem BioAssay AID328 (DTP/NCI, 2004)
“And” between values parts separate entries of the source, which are not always exact repeats. Identical values can stand only once. Toxic doses and inconclusive results are not listed.

System: BDF1 mice, P388 leukemia ip, median survival T/C
Assay: NCI In Vivo Anticancer Drug Screen. Data for tumor model P388 Leukemia (intraperitoneal) in B6D2F1 (BDF1) mice
Settings: endpoint: median survival time, higher = longer survival
Method in brief: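 Compound-treated tumour-bearing mice were compared with vehicle-treated controls. Survival was recorded, and the value is the treated-group measurement divided by the control-group measurement (T/C).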

[1] = dose: 100.0 mg/kg/injection, schedule: Q04DX003 (ip), vehicle: Klucel (hydroxypropylcellulose) (HPC)
[2] = dose: 200.0 mg/kg/injection, schedule: Q04DX003 (ip), vehicle: Klucel (hydroxypropylcellulose) (HPC)
[3] = dose: 50.0 mg/kg/injection, schedule: Q01DX009 (ip), vehicle: saline with Tween-80
[4] = dose: 100.0 mg/kg/injection, schedule: Q01DX009 (ip), vehicle: saline with Tween-80
[5] = dose: 200.0 mg/kg/injection, schedule: Q01DX009 (ip), vehicle: saline with Tween-80
[6] = dose: 100.0 mg/kg/injection, schedule: Q04DX003 (ip), vehicle: saline with Tween-80
[7] = dose: 200.0 mg/kg/injection, schedule: Q04DX003 (ip), vehicle: saline with Tween-80
[8] = dose: 400.0 mg/kg/injection, schedule: Q04DX003 (ip), vehicle: saline with Tween-80
[9] = dose: 100.0 mg/kg/injection, schedule: Q04DX003 (ip), vehicle: saline
[10] = dose: 50.0 mg/kg/injection, schedule: Q04DX003 (ip), vehicle: saline with Tween-80

## CC(=O)/C=N/Nc1ccccc1
dose: 50.0 mg/kg/injection, schedule: Q04DX003 (ip), vehicle: Klucel (hydroxypropylcellulose) (HPC)
  T/C: 109 % of control
dose: 66.0 mg/kg/injection, schedule: Q04DX003 (ip), vehicle: Klucel (hydroxypropylcellulose) (HPC)
  T/C: 110 % of control
[1]
  T/C: 120 % of control
dose: 150.0 mg/kg/injection, schedule: Q04DX003 (ip), vehicle: Klucel (hydroxypropylcellulose) (HPC)
  T/C: 120 % of control
[2]
  T/C: 95 % of control

## N#CC(O)Cc1ccccc1 (stereo not given)
dose: 2.5 mg/kg/injection, schedule: Q01DX009 (ip), vehicle: other
  T/C: 100 % of control
dose: 5.0 mg/kg/injection, schedule: Q01DX009 (ip), vehicle: other
  T/C: 100 % of control
dose: 10.0 mg/kg/injection, schedule: Q01DX009 (ip), vehicle: other
  T/C: 100 % of control

## NC1=NS(=O)(=O)N=C(N)C1=NNc1ccccc1
[3]
  T/C: 92 % of control
[4]
  T/C: 99 % of control
[5]
  T/C: 103 % of control

## COc1ccc2c(c1)N=C1CCCC3CCCCC123 (stereo not given)
[6]
  T/C: 99 % of control
[7]
  T/C: 114 % of control

## COC(C)(OC)C(N)=O
[6]
  T/C: 100 % of control
[7]
  T/C: 100 % of control
[8]
  T/C: 104 % of control

## COC(=O)c1cc2ccccc2o1
[6]
  T/C: 95 % of control
[7]
  T/C: 95 % of control
[8]
  T/C: 91 % of control

## O=C(Nc1ccc(S(=O)(=O)Nc2ccc(N=Nc3ccccc3)cc2)cc1)C(SC1=NC=NC2=NC=NC21)SC1=NC=NC2=NC=NC21 (stereo not given)
[9]
  T/C: 95 % of control
dose: 200.0 mg/kg/injection, schedule: Q04DX003 (ip), vehicle: saline
  T/C: 105 % of control
dose: 400.0 mg/kg/injection, schedule: Q04DX003 (ip), vehicle: saline
  T/C: 115 % of control

## CCCCC(=O)c1ccc(F)cc1
dose: 100.0 mg/kg/injection, schedule: Q01DX009 (ip), vehicle: Klucel (hydroxypropylcellulose) (HPC)
  T/C: 95 % of control
[1]
  T/C: 91 % of control
dose: 200.0 mg/kg/injection, schedule: Q01DX009 (ip), vehicle: Klucel (hydroxypropylcellulose) (HPC)
  T/C: 104 % of control
[2]
  T/C: 104 % of control
dose: 400.0 mg/kg/injection, schedule: Q01DX009 (ip), vehicle: Klucel (hydroxypropylcellulose) (HPC)
  T/C: 109 % of control
dose: 400.0 mg/kg/injection, schedule: Q04DX003 (ip), vehicle: Klucel (hydroxypropylcellulose) (HPC)
  T/C: 91 % of control

## O=C(O)c1cc(Br)c(Br)s1
[10]
  T/C: 91 % of control
[6]
  T/C: 100 % of control
[7]
  T/C: 112 % of control

## Cc1cccc(C(=O)Cc2cccc(C#N)c2)c1
[3]
  T/C: 113 % of control
[4]
  T/C: 99 % of control
[5]
  T/C: 96 % of control

## Cc1ccc(NCCN(C)C)c2c(=O)c3ccccc3sc12
dose: 6.25 mg/kg/injection, schedule: Q01DX009 (ip), vehicle: saline
  T/C: 96 % of control
dose: 12.0 mg/kg/injection, schedule: Q04DX003 (ip), vehicle: saline
  T/C: 105 % of control
dose: 12.5 mg/kg/injection, schedule: Q01DX009 (ip), vehicle: saline
  T/C: 103 % of control
dose: 19.0 mg/kg/injection, schedule: Q04DX003 (ip), vehicle: saline
  T/C: 120 % of control
dose: 25.0 mg/kg/injection, schedule: Q01DX009 (ip), vehicle: saline
  T/C: 107 % of control
dose: 100.0 mg/kg/injection, schedule: Q04DX003 (ip), vehicle: alcohol
  T/C: 155 % of control
[9]
  T/C: 168 % of control and 170 % of control
dose: 150.0 mg/kg/injection, schedule: Q04DX003 (ip), vehicle: saline
  T/C: 205 % of control
dose: 200.0 mg/kg/injection, schedule: Q04DX003 (ip), vehicle: alcohol
  T/C: 100 % of control

## O=C(c1cccs1)c1cccs1
[3]
  T/C: 101 % of control
[4]
  T/C: 108 % of control
[6]
  T/C: 102 % of control
[5]
  T/C: 92 % of control
[7]
  T/C: 90 % of control
dose: 400.0 mg/kg/injection, schedule: Q01DX009 (ip), vehicle: saline with Tween-80
  T/C: 99 % of control
[8]
  T/C: 112 % of control

## Cn1c(=O)c(-c2ccccc2)[n+]([O-])c2ccccc21
dose: 25.0 mg/kg/injection, schedule: Q01DX009 (ip), vehicle: saline with Tween-80
  T/C: 98 % of control
[3]
  T/C: 107 % of control
[4]
  T/C: 100 % of control
[5]
  T/C: 113 % of control

## C=CC(O)CN1CC1 (stereo not given)
dose: 10.0 mg/kg/injection, schedule: Q04DX003 (ip), vehicle: saline
  T/C: 191 % of control

## C1CO[Te]2(O1)OCCO2
dose: 12.5 mg/kg/injection, schedule: Q04DX003 (ip), vehicle: saline with Tween-80
  T/C: 97 % of control
dose: 25.0 mg/kg/injection, schedule: Q04DX003 (ip), vehicle: saline with Tween-80
  T/C: 88 % of control
[10]
  T/C: 88 % of control

## N#CCCCn1nnc(-c2ccccc2)n1
[3]
  T/C: 100 % of control
[4]
  T/C: 108 % of control
